Values quoted from earlier work, collected in article PMC8463262 (Acta Pharmaceutica Sinica. B, 2020).

Test system: PRMT5
Conditions: read-out: IC50 PRMT5

IC50: 6 µM
SMILES: CCNC(=O)NCCSC[C@H]1O[C@@H](n2cnc3c(N)ncnc32)[C@H](O)[C@@H]1O [DS437]
